The results in this text go back to patent US20030049697A1, “Family of mechanosensitive human potassium channels activated by polyunsaturated fatty acids and their use” (CENTRE NATIONAL DE LA RECHERCHE SCIENTIFIQUE, C.N.R.S., priority 2000, published 2003).

The target in assay [1] is T1, hTRAAK (Homo sapiens, UniProt Q9NYG8).
T1 construct: expressed in transfected cells; host or cells: COS-7 cells, transient DEAE-dextran transfection of pIRES-CD8.hTRAAK
T1 sequence (Q9NYG8 1-393): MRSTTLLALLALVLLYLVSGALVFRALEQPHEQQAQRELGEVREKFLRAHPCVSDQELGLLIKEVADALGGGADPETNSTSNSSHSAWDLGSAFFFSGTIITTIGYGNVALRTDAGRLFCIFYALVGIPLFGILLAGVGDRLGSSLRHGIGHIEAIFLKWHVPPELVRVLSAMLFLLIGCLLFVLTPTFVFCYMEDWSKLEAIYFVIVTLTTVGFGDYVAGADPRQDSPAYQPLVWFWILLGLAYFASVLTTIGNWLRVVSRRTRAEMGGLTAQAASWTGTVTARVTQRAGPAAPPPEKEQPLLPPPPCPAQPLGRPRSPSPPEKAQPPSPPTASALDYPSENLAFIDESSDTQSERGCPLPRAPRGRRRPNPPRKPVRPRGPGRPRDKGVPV
Nature of the assay: Whole cell configuration electrophysiology of hTRAAK current in transfected COS cells. Format: cell-based. As for the experimental part:
Electrophysiological experiments were performed in COS cells transfected in a temporary manner.
It has been shown that certain members of the family of K^+ channels with two P domains (TREK-1 and TASK-1) are opened by volatile general anesthetics (Patel et al., 1999). We, therefore, also investigated the effect of chloroform on hTRAAK.
In fact, the opening of the channel is mediated by a deformation of the membrane (Maingret et al., 1999 (a); Patel et al., 1998).
The COS-7 cells were maintained in Eagle medium as modified by Dulbecco supplemented with 10% fetal calf's serum. The plasmid pIRES-cD8-hTRAAK was transfected using the conventional DEAE dextran procedure. The positive cells were visualized 48 h after transfection using the method of beads covered by the anti-CD8 antibody (Maingret et al., 1999 (a); Maingret et al., 1999 (b)).
For the experiments on whole cells and the outside-in experiments, the pipette solution (INT) contained 150 mM KCl, […], 5 mM EGTA and 10 mM HEPES, pH adjusted with KOH. The bath solution (EXT) contained 150 mM NaCl, 5 mM KCl, 3 mM MgCl2, 1 mM CaCl2 and 10 mM HEPES, pH 7.4 adjusted with NaOH. For the inside-out experiments, the solution in the pipette was EXT and the bath solution was INT. The EXT solution rich in K^+ contained 150 mM KCl in place of 150 mM NaCl. To study the selectivity of the ions, the relationships between the current and the voltage were obtained at different ext. K^+ concentrations. For each concentration, NaCl was replaced in the EXT solution by equimolar KCl.
All of the products were obtained from Sigma. The fatty acids were dissolved in ethanol at the concentration of 100 mM, put under argon and stored at […] for one week.

For assay [2], the target named is T1, hTRAAK. Nature of the assay: Excised patch (outside-out configuration) recording of hTRAAK in transfected COS cells. Format: cell-based. As for the experimental part: Under physiological conditions, the current induced by AA is outward rectifying and changes direction at […], n=7 (FIG. 5A). When the exterior Na^+ is replaced by K^+, the current becomes linear and the direction change potential is −0.6±0.8 mV, n=7 (FIG. 5B). hTRAAK is also activated by the polyunsaturated acid decosahexaenoate (10 μM, n=3), but is insensitive to the saturated fatty acids myristate, palmitate, stearate and arachinate (10 μM, n=6 to 8). […] The stimulation by AA of hTRAAK remains then when the patch is excised (FIG. 5C). The current induced by AA observed in an outside-out configuration is outward rectifying and changes direction at the reverse potential of K^+ (FIG. 5C, box). […] In fact, the opening of the channel is mediated by a deformation of the membrane (Maingret et al., 1999 (a); Patel et al., 1998). FIG. 5D illustrates the mechanical sensitivity of hTRAAK. In the reverse patch configuration, the activity of the channel is almost absent at atmospheric pressure. Application of negative pressure opens the channels in a dose-dependent manner.
The COS-7 cells were maintained in Eagle medium as modified by Dulbecco supplemented with 10% fetal calf's serum. The plasmid pIRES-cD8-hTRAAK was transfected using the conventional DEAE dextran procedure. […]

As for `Nc1ccncc1` [4AP], the “sensitivity of hTRAAK to K+ channel blocking agent” value at hTRAAK [1] (3 mM, whole cell configuration) was “insensitive”.

On to `CC[N+](CC)(CC)CC` [TEA], for which the “sensitivity of hTRAAK to K+ channel blocking agent” value on hTRAAK [1] (10 mM, whole cell configuration) is listed as “insensitive”.

Consider `CCCCC/C=C\C/C=C\C/C=C\C/C=C\CCCC(=O)O` [arachidonic acid], for which, at hTRAAK [1] (10 μm, whole cell configuration, at 0 mV, n=19), the “potentiation of human TRAAK activity” value amounted to 630±101%. On hTRAAK [1] (by means of washing), the reversibility of activation entry is “completely reversible”. Further, on hTRAAK [1] (exterior Na+ replaced by K+, n=7), the “direction change potential of the induced current” value is listed as −0.6±0.8 mV. Also, the potential at which the induced current changes direction at hTRAAK [1] (physiological conditions, n=7) was -80.6 ± 0.9 mV. In addition, the “stimulation of hTRAAK when the patch is excised” value on hTRAAK [2] is listed as “remains”.

As for `CCCCCCCCCCCCCCCCCCCC(=O)O` [arachinate], the “sensitivity of hTRAAK to saturated fatty acids” value at hTRAAK [1] (10 μM, n=6 to 8) is “insensitive”.

Regarding `[Ba+2]` [barium], the “sensitivity of hTRAAK to K+ channel blocking agent” value at hTRAAK [1] (1 mM, whole cell configuration) is “insensitive”.

With `ClC(Cl)Cl` [chloroform], the “effect on the channel's activity” value at hTRAAK [1] (0.8 mM, n=8) was “no effect”.

For `CC/C=C\C/C=C\C/C=C\C/C=C\C/C=C\C/C=C\CCC(=O)O` [decosahexaenoate], on hTRAAK [1] (10 μM, n=3), the “activation of hTRAAK by polyunsaturated fatty acid” value was “activated”.

In the case of `COc1ccc(Cl)cc1C(=O)NCCc1ccc(S(=O)(=O)NC(=O)NC2CCCCC2)cc1` [glibenclamide], the “sensitivity of hTRAAK to K+ channel blocking agent” value on hTRAAK [1] (10 μM, whole cell configuration) is listed as “insensitive”.

As for `C=C[C@H]1C[N@@]2CC[C@H]1C[C@@H]2[C@@H](O)c1ccnc2ccc(OC)cc12` [quinidine], the “sensitivity of hTRAAK to K+ channel blocking agent” value at hTRAAK [1] (100 μm, whole cell configuration) was “insensitive”.

Consider `Nc1nc2ccc(OC(F)(F)F)cc2s1` [riluzole], for which the “activation of hTRAAK” value on hTRAAK [1] (no concentration or data printed) is on record as “activated”.
